From patent publication US20050020557A1, “Method for treating diseases using HSP90-inhibiting agents in combination with enzyme inhibitors” (Kosan Biosciences, Inc., priority 2003, published 2005)

Columns and labels:
[1] = clinical trials; twice-weekly regimen; sole agent; cited from earlier work
ErbB2 protein [2] = test: ErbB2 protein expression in SKBr3 cells; assay type: cell-based, human
ErbB2 protein [3] = test: ErbB2 protein expression in glioma cells; assay type: cell-based
[4] = system: SKBr-3 cells (human breast cancer cells); test: Cell viability (MTS) drug combination assay, combination index by median effect analysis, SKBr-3 cells; assay type: cell-based; conditions: combination of enzyme inhibitor with 17-AAG, CI<1 synergism, CI=1 additivity, CI>1 antagonism; for CI value, 17-AAG Pre-Administration: 17-AAG 24 h before enzyme inhibitor (48 h); for CI value, 17-AAG Post-Administration: enzyme inhibitor 24 h, then 17-AAG for 48 h
Experimental: Human colon adenocarcinoma cell line, DLD-1, and human breast adenocarcinoma cell line, SKBr-3, were obtained from American Type Culture Collection (manassas, Va.). […] Other cytotoxic agents were purchased commercially from suppliers such as Sigma Chemical Co. (St. Louis, Mo.) and Sequoia Research Products (Oxford, UK). Cells were seeded in duplicate in 96-well microtiter plates at a density of 5,000 cells per well and allowed to attach overnight. […] Cell viability was determined using the MTS assay (Promega). […] Based on the IC50 values of each individual drug, combined drug treatment was designed at constant ratios of two drugs, i.e., equivalent to the ratio of their IC50. Two treatment schedules were used: In one schedule, the cells were exposed to 24 hours of 17-AAG or 17-DMAG. The drug was then added to the cells and incubated for 48 hours. […] Cell viability was determined by the MTS assay. Synergism, additivity or antagonism was determined by median effect analysis using the combination index (CI) calculated using Calcusyn (Biosoft, Cambridge, UK). […] The “enhancing” effect of two drugs can also be determined.

[5] = system: DLD-1 cells (human colorectal cancer cells); test: Cell viability (MTS) drug combination assay, combination index by median effect analysis, DLD-1 cells; assay type: cell-based; conditions: combination of enzyme inhibitor with 17-AAG, CI<1 synergism, CI=1 additivity, CI>1 antagonism
Experimental: Human colon adenocarcinoma cell line, DLD-1, and human breast adenocarcinoma cell line, SKBr-3, were obtained from American Type Culture Collection (manassas, Va.). […] 17-DMAG and 17-AAG were obtained using published procedures. Other cytotoxic agents were purchased commercially from suppliers such as Sigma Chemical Co. (St. Louis, Mo.) and Sequoia Research Products (Oxford, UK).
Cells were seeded in duplicate in 96-well microtiter plates at a density of 5,000 cells per well and allowed to attach overnight. […] Cell viability was determined using the MTS assay (Promega). For the drug combination assay, cells were seeded in duplicate in 96-well plates (5,000 cells/well). […] Based on the IC50 values of each individual drug, combined drug treatment was designed at constant ratios of two drugs, i.e., equivalent to the ratio of their IC50. Two treatment schedules were used: In one schedule, the cells were exposed to 24 hours of 17-AAG or 17-DMAG. The drug was then added to the cells and incubated for 48 hours. […] Cell viability was determined by the MTS assay.
Synergism, additivity or antagonism was determined by median effect analysis using the combination index (CI) calculated using Calcusyn (Biosoft, Cambridge, UK). […] The “enhancing” effect of two drugs can also be determined.

C=CCNC1=C2C[C@@H](C)C[C@H](OC)[C@H](O)[C@@H](C)/C=C(\C)[C@H](OC(N)=O)[C@@H](OC)/C=C\C=C(/C)C(=O)NC(=CC1=O)C2=O [17-AAG, 17-(allylamino)-17-desmethoxygeldanamycin]
MTD (maximum tolerated dose) [1]: about 220 mg/m2 | expression of ErbB2 protein (ErbB2 protein [2]): reduced the expression of ErbB2 protein | expression of ErbB2 protein (ErbB2 protein [3]): reduced the expression of ErbB2 protein

COc1cc2ncnc(Nc3ccc(F)c(Cl)c3)c2cc1OCCCN1CCOCC1 [Iressa]
CI value, 17-AAG Pre-Administration [4]: 0.77 ± 0.29 | CI value, 17-AAG Post-Administration [4]: 0.67 ± 0.02 | CI value, 17-AAG Pre-Administration ([5]; 17-AAG 24 h before enzyme inhibitor (48 h)): 0.76 ± 0.37 | CI value, 17-AAG Post-Administration ([5]; enzyme inhibitor 24 h, then 17-AAG for 48 h): 0.41 ± 0.01

CC(/C=C/C(=O)NO)=C\[C@@H](C)C(=O)c1ccc(N(C)C)cc1 [Trichostatin A]
CI value, 17-AAG Pre-Administration [4]: 1.16 ± 0.02 | CI value, 17-AAG Post-Administration [4]: 0.91 ± 0.007
